This is an account of results in ChEMBL document CHEMBL5727896, “Aryldiazepine derivatives as RSV inhibitors” (2020).

The assay in a line: n vitro cytoprotection assay: HEp-2 cells, (originally derived from tumors grown in irradiated-cortisonised weanling rats that had been injected with epidermoid carcinoma tissue from a person's larynx, but later found to be indistinguishable from HeLa cells by PCR DNA analysis), were used for the culturing of genotype A, “Long” strain RSV. Flasks were inoculated with RSV and viral stocks were collected once cytopathic effect (CPE) was greater than 90%. Viral stocks in 25% sucrose media were snap frozen using liquid nitrogen to increase viral stability. Viral stock titers were quantified by tissue culture infectious dose 50% (TCID50) using 8,000 cells per well and 3-fold viral dilutions across a 96-well plate, cultured for 4 days.Following extensive parameter testing, the final assay is run as follows: HEp-2 cells are seeded into the inner 60 wells of a 96-well plate at 8,000 cells per well in a volume of 50 using Growth Media (DMEM without phenol red, 1% L-Glut, 1% Penn/Strep, 1% nonessential amino acids, 10% FBS). 2-fold serial dilutions of control and test compounds are added to the wells in duplicate in a total volume of 25 μL. Viral stock is then added to the wells in a volume of 25 μL, bringing the total volume of each well to 100 μL. Each 96-well plate has a control column of 6 wells with cells and virus but no compound (negative control, max CPE), a column with cells but no compound or virus (positive control, minimum CPE), and a column with no cells or virus or compound (background plate/reagent control). The control wells with cells but no virus are given an additional 25 uL of growth media containing an equal quantity of sucrose as those wells receiving the viral stock in order to keep consistent in media and volume conditions. The outer wells of the plate are filled with 125 μL of growth media to act as a thermal and evaporative moat around the test wells. Following a 4-day incubation period, the plates are read using ATPlite (50 uL added per well), which quantifies the amount of ATP (a measure of cell health) present in each well. Assay plates are read using the Envision luminometer. In general terms: Protection from cytopathic effect is a common read-out in antiviral testing.

The term EC50 denotes the concentration that produces a half-maximal response. A lower EC50 goes with greater potency. In turn, `O=C(NNC(=S)NC1C(=O)Nc2ccccc2N(c2ccccc2)C1=O)c1ccccc1` (stereo not given) showed an EC50 of over 5 µM. To `O=C(N[C@H]1CN(c2ccccc2)c2ccccc2NC1=O)c1ccccc1` belongs over 5 µM; to `NNC(=O)c1ncc(C(F)(F)F)cc1Cl`, under 2 µM; to `O=C1Nc2ccccc2N(c2cc(F)c(F)c(F)c2)C[C@@H]1Nc1nnc(-c2ncc(C(F)(F)F)cc2N2CCOCC2)o1`, over 5 µM.

The compound `COCCNc1cc(C(F)(F)F)cnc1-c1nnc(N[C@H]2CN(c3ccccc3)c3ccccc3NC2=O)o1` registered an EC50 of over 5 µM. As for `O=C1Nc2ccccc2N(c2ccccc2)C[C@@H]1Nc1nnc(-c2nc(C3CC3)sc2N2CCOCC2)o1`, the figure is under 2 µM. As for `NNC(=O)c1nc(-c2cccnc2)sc1N1CCOCC1`, the figure is under 2 µM. The compound `O=C(Nc1ccccc1)N[C@H]1CN(c2ccccc2)c2ccccc2NC1=O` had an EC50 of over 5 µM. To `O=C1Nc2ccccc2N(c2ccccc2)C[C@@H]1Nc1nnc(-c2cn(C3CCCC3)nc2N2CCOCC2)o1` belongs under 2 µM; to `O=C1Nc2ccccc2N(c2ccccc2)C[C@@H]1Nc1nnc(-c2ccc(F)cc2)o1`, over 5 µM; to `O=C(Nc1ccccc1)NC1C(=O)Nc2ccccc2N(c2ccccc2)C1=O` (stereo not given), over 5 µM.

The compound `O=C(NC1C(=O)Nc2ccccc2N(c2ccccc2)C1=O)c1ccccc1` (stereo not given) had an EC50 of over 5 µM. To `Cc1ccc(C(=O)NN)o1` belongs over 5 µM; to `CCOC(=O)c1nc(C(F)(F)F)sc1N1CCOCC1`, under 2 µM.

On to `NNC(=O)c1cn(-c2ccccn2)nc1N1CCOCC1`, for which the EC50 came to 3.5 µM. As for `O=C1Nc2ccccc2N(c2ccccc2)C[C@@H]1Nc1nnc(-c2ncc(C3CC3)cc2N2CCOCC2)o1`, the figure is under 2 µM; as for `O=C1Nc2ccccc2N(c2ccccc2)C[C@@H]1Nc1nnc(-c2ccccc2)o1`, over 5 µM. To `O=C1Nc2ccccc2N(c2ccccc2)C[C@@H]1Nc1nnc(-c2cccnc2N2CCOCC2)o1` belongs 3.5 µM; to `O=C1Nc2ccccc2N(c2ccccc2)C[C@@H]1Nc1nc2ccccc2o1`, over 5 µM. For `O=C1Nc2ccccc2N(c2ccccc2)C[C@@H]1Nc1nnc(-c2ccc(N3CCOCC3)cc2F)o1`, the EC50 is over 5 µM.
